Reference: patent publication US20150086557A1, “NOVEL INTEGRIN alpha9 beta1 LIGAND AND USES THEREOF” (OSAKA UNIVERSITY, priority 2012, published 2015)

Legend:
integrin α9β1 = molecular target: T1, integrin α9β1 (Homo sapiens, UniProt P05556+Q13797); experiment: Integrin α9β1-pol-C binding inhibition assay with synthetic peptides; details: integrin α9β1 10 nM, pol-C 10 nM, 1 mM MnCl2, 10% DMSO, FIG. 15
T1 construct: A cDNA encoding the extracellular region of human integrin α9; An expression vector for the extracellular region of integrin β1; ACID coiled-coil (Velcro) peptide; FLAG; BASE coiled-coil (Velcro) peptide; made in house; host or cells: FreeStyle 293 Expression System (293-F cells)
T1 sequence (Q13797 30-981 limits assumed): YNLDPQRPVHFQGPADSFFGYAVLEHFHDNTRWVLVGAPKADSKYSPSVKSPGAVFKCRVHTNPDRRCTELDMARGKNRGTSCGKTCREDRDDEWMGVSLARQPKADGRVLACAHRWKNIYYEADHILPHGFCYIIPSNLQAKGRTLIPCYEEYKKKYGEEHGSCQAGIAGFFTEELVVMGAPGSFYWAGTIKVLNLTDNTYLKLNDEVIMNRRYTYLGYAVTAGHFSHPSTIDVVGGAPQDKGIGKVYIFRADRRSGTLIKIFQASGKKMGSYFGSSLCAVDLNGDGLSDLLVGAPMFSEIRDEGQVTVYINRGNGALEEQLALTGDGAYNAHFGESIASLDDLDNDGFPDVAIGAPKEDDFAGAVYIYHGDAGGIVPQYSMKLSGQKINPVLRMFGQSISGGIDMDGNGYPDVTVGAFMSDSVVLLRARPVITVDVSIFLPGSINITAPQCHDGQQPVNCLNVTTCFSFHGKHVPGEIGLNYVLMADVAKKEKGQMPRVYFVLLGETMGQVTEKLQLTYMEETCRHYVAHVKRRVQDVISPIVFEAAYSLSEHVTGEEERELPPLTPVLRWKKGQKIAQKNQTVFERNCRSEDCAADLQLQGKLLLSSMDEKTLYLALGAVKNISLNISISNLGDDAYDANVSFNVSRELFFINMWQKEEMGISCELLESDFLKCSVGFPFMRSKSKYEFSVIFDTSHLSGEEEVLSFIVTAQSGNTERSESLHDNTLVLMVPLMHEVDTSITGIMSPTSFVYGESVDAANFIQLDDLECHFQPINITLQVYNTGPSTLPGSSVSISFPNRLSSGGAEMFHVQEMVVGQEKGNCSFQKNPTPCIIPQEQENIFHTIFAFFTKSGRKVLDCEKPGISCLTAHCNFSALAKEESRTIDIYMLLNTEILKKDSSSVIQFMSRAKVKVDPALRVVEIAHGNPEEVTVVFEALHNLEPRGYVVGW
T1 sequence (P05556 21-728 limits assumed): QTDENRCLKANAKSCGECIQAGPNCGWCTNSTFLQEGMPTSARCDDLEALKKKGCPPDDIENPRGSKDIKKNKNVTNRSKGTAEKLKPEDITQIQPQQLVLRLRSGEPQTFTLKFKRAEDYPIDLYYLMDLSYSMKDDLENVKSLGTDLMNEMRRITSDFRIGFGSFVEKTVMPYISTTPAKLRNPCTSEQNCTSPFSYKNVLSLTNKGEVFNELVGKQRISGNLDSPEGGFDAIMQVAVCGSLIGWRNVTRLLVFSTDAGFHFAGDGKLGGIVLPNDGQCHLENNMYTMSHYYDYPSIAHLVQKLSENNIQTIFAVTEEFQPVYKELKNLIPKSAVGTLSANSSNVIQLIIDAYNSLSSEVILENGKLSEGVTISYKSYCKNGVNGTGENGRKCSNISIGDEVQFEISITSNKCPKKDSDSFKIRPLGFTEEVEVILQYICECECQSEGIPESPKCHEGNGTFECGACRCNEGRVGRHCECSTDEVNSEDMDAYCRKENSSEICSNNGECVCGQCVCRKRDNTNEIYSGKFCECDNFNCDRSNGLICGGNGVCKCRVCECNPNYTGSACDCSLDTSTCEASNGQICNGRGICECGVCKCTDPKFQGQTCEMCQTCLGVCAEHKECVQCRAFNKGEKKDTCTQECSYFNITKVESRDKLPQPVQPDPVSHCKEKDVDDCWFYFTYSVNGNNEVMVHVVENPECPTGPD
Protocol: An integrin binding assay was performed as described in the above-mentioned publication Matrix Biol. 25, […], (2006). In some experiments, integrins were preincubated with synthetic peptides at various concentrations to evaluate the inhibitory activities of the synthetic peptides. The apparent dissociation constants were determined as described in Nishiuchi, R., Murayama, O., Fujiwara, H., Gu, J., Kawakami. T., Aimoto, S., Wada, Y., and Sekiguchi, K. (2003) J. Biochem, 134, 497-504.
To further corroborate the role of EDDMMEVPY as the integrin α9β1 recognition sequence, an integrin α9β1-pol-C binding inhibition assay was performed using synthetic peptides consisting of the EDDMMEVPY sequence or a part of the sequence, Integrin α9β1 (10 nM) was incubated on microtiter plates coated with pol-C (10 nM) in the presence of 1 mM MnCl2 and various concentrations of the synthetic peptides. To prevent precipitation of the peptides, the assay was performed in the presence of 10% DMSO. Based on the amount of integrin α9β1 bound to pol-C set as 100%, the relative binding amount was calculated.

cardiac stem cells [1] = experiment: Cell adhesion assay using GFP label-retaining cells (cardiac stem cells); format: cell-based, mouse; details: 100 nM coating, 12 hours, serum-free IMDM, FIG. 25
Description: (§1) Tissue stem cells are known to generally have a very prolonged, cell cycle and thus allow labeling compounds incorporated into DNA and the cell interior to remain stable for a long period of time without decay along with cell division, This nature can be advantageously used to identify and separate tissue stem cells by short-term labeling or cells with a nucleotide analog such as bromodeoxyuridine (BrdU) or a fusion protein of green fluorescent protein (hereinafter referred to as “GFP”) and a nucleoprotein, histone, followed by selection of cells retaining the label for a long period of time (label-retaining cells). In this experiment, with the use of a tetracycline-inducible expression system in combination with the ROSA26 promoter, a fusion protein of GFP and histone H2B (H2B-GFP) was expressed in the heart of a mouse for 2 weeks starting 1 week before birth, and 6 weeks later, cardiac stem cells were separated as GFP label-retaining cells from the heart.
To explore whether polydom serves as a scaffold for integrin α9β1-expressing cardiac stem cells, cardiac stem cells were separated as GFP label-retaining cells and subjected to a cell adhesion assay. A 96-well immuno plate (Nunc Maxisorp) was coated with 50 μl/well of 100 nM polydom or fibronectin at 4° C. overnight, GFP label-retaining cells were collected by FACSAria and suspended at 1×10^6 cells/ml in serum-free Iscove's Modified Dulbecco Medium (hereinafter referred to as “IMDM”). The cell suspension was plated at 100 μl/well and cultured in a 5% CO2 incubator at 37° C. for 12 hours. After three washes with PBS, the cells were fixed with 100 μl/well of 3.7% formalin for 15 minutes. Then, the cells were incubated with 0.5% toluidine blue (150 μl/well) for 10 minutes and washed with MilliQ water. After drying, the number of attached cells was counted under a microscope.

hematopoietic stem cells [2] = experiment: FACS analysis of differentiation of hematopoietic stem cells on coated wells; format: cell-based, mouse; details: day 3 of culture on coated well, FIG. 19
Protocol: (§2) Bone marrow cells were flushed out from the femurs and tibias of three mice of 6 to 7 weeks of age (C57BL/6J) and dissociated with a 22G needle. The cells were reacted with a biotin-labeled anti-lineage antibody for 30 minutes and subsequently with an anti-blotin antibody-conjugated magnetic beads, and lineage-positive cells were removed by automated magnetic cell sorter autoMACS (Miltenyi Biotec). After staining with PE-CD3, PE-Mac1, PE-Gr1, PE-Ter119, PE-B220, FTTC-Sca1 and APC-c-Kit, a lineage(−) Sca1(+) c-Kit (high) cell fraction was sorted out using FACSAria and used for the experiments described below.
(§3) The above-prepared cells were plated on a 48-well plate coated with a recombinant polydom protein or fibronectin. The same type of plate without coating was used as a control. The medium used was RPMI containing 10% fetal calf serum, thrombopoietin (30 ng/ml) and flt3 ligand (100 ng/ml). For the examination of cell proliferation, the cells were plated in duplicate wells for each coating at 1000 cells/well and started to be cultured, and the cell number was counted at the start of culture, and on day 2 and day 3. The remaining cells were divided into three aliquots, plated in wells for each coating, and subjected to FACS analysis on day 3 after the start of culture. For the FACS analysis, staining with an antibody cocktail containing PE-CD3, PE-Mac1, PE-Gr1, PE-Ter119, PE-B220, FITC-Sca1 and APC-c-Kit was performed and FACSCont was used.

cardiac stem cells [3] = experiment: Colony forming ability of GFP label-retaining cells (cardiac stem cells); format: cell-based, mouse; details: 100 nM coating, 1×10^4 cells/well, 2 weeks, FIG. 26
Description: as §1
To explore whether cardiac stem cells proliferate on a polydom-coated plate, colony formation was measured, as an indicator of proliferation. A Falcon 6-well plate was coated with 800 μl/well of 100 nM polydom or fibronectin at 4° C. overnight. GFP label-retaining cells were collected by FACSAria and suspended in IMDM containing 10% fetal calf serum. […] After drying, the number of colonies was counted under a microscope.

hematopoietic stem cells [4] = experiment: Proliferation of hematopoietic stem cells on coated plates; format: cell-based, mouse
Protocol: as §2, §3
The above-prepared cells were divided into three groups and plated on 48-well plates at 5000 cells/well. The medium used was RPMI containing 10% fetal calf serum, thrombopoietin (30 ng/ml) and flt3 ligand (100 ng/ml). For an EDDMMEVPY peptide treatment group, 2 μl of the peptide was added to each well at the final concentration of 50 μM, and for the other two groups, 2 μl of PBS was added to each well. Then, the culture was performed at […] for 2 hours. Subsequently, the cells were transferred to 48-well plates coated with a recombinant polydom protein or fibronectin. The cells cultured in the presence of the peptide were transferred to the recombinant polydom protein-coated plate, and the cells in one of the other two groups were transferred to the recombinant polydom protein-coated plate, and the cells in the remaining group were transferred to the fibronectin-coated plate. The culture was continued for 3 days and the cell numbers were counted on day 2, day 3 and […].

[5] = molecular target: integrin α9β1 on RD cells (human rhabdomyosarcoma cells) (human) (UniProt Q13797); experiment: cell-based or functional assay
Chain of integrin α9β1 on RD cells (human rhabdomyosarcoma cells) (human) (Q13797 30-1035, chain 1 of 2): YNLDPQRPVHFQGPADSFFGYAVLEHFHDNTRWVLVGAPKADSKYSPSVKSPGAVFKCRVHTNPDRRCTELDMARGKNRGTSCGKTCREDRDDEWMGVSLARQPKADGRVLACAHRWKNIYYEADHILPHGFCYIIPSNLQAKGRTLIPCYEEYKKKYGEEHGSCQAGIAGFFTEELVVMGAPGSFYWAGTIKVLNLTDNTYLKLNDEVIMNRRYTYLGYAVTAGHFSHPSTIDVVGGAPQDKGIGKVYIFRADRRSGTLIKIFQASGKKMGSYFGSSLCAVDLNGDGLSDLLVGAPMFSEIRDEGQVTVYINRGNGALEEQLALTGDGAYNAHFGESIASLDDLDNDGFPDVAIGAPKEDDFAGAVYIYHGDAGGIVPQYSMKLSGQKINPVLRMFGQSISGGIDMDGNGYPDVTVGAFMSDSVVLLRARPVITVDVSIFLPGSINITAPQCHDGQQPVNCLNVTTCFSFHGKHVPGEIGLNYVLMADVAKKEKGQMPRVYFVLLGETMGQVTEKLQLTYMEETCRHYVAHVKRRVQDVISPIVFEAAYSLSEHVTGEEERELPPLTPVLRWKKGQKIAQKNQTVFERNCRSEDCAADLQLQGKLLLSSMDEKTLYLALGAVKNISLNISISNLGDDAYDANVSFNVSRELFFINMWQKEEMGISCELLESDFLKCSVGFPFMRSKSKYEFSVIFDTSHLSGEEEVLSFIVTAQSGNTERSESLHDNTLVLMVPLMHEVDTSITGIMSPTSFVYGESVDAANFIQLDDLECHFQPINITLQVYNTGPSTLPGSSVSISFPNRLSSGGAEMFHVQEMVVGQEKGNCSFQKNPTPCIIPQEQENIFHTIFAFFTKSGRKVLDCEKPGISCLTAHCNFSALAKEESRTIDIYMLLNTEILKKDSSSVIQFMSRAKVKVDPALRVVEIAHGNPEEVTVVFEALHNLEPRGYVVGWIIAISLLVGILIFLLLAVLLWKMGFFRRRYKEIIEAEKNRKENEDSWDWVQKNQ
Chain of integrin α9β1 on RD cells (human rhabdomyosarcoma cells) (human) (P05556 21-798, chain 2 of 2, further chain): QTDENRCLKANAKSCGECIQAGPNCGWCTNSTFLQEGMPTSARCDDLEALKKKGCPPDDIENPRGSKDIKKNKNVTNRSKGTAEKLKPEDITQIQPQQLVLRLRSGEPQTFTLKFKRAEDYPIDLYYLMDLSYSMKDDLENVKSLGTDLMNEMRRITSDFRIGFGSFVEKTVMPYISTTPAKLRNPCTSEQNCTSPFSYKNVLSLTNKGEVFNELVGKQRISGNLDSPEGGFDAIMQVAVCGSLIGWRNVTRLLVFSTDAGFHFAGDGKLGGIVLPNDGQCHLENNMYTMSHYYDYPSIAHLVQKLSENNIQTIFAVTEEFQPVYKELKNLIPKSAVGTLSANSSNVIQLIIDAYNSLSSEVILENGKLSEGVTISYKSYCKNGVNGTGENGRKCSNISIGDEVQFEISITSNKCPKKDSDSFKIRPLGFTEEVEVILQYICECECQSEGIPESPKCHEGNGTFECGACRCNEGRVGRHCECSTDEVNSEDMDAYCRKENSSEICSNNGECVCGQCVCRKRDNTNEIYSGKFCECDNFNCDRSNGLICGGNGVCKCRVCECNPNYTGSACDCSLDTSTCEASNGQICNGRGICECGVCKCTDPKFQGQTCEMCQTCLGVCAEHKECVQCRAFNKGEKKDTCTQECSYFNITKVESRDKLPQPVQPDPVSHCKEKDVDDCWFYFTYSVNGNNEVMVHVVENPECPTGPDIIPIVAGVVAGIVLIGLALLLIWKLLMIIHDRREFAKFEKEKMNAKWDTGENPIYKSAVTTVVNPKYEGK

DMMEVPY
inhibitory potency toward binding of integrin α9β1 to pol-C (integrin α9β1): nearly as potent as EDDMMEVPY

TYSSPEDGIHE [reference compound]
inhibitory potency toward binding of integrin α9β1 to pol-C (integrin α9β1): barely inhibitory

fibronectin [reference compound]
adhesion of cardiac stem cells to coated plate (cardiac stem cells [1]): a large number of the cells adhered
expression of c-Kit on hematopoietic stem cells (hematopoietic stem cells [2]): increased expression of c-Kit
colony forming activity (colony count relative to the number of cells plated) (cardiac stem cells [3]): about 0.4%
proliferation of hematopoietic stem cells on coated wells (hematopoietic stem cells [4]; 1000 cells/well, counted to day 3, versus uncoated control, FIG. 18): proliferated as with the control
proliferation of hematopoietic stem cells on coated plate after PBS pretreatment (hematopoietic stem cells [4]; 5000 cells/well, counted day 2 to day 4, FIG. 20): proliferated

full-length polydom (recombinant mouse SVEP1) (from UniProt A2AVA0 18-3567) (ligand)
adhesion of RD cells to coated full-length polydom [5]: 3 µg/mL
